According to a melting point compilation (Tetko et al.; mined from patent text by program, amines drawn as free bases though some values may be those of a salt):

Row | Structure (SMILES) | melting point [°C]
1 | CNC(=O)N1CC(Oc2cccc(C(F)(F)F)c2)C1 | 145 to 147
2 | COCc1c(C(=O)OC(C)C)ncc2[nH]c3cccc(Oc4ccccc4)c3c12 | 201 to 203
3 | CC(C)C(C)(C(N)=O)N1C(=O)c2cccnc2C1=O (stereo unspecified) | 176 to 178
4 | CCNC(=O)CCc1cnoc1-c1ccccc1 | 75 to 76
5 | CC(Cc1cc2ccccc2[nH]1)(NC(=O)OC1C2CC3CC(C2)CC1C3)C(=O)NCC(N)c1ccccc1 (stereo unspecified) | 96 to 102
6 | OCc1cc(Cl)cc(CO)c1O | 161 to 163
7 | CS(=O)(=O)N1Cc2nc3c(N)nc4c(c3n2C(CCCNC(=O)N2CCOCC2)C1)CCCC4 (stereo unspecified) | 149 to 160
8 | O=C(O)c1ccccc1OCCN1CCC(c2c[nH]c3ccccc23)CC1 | 230
9 | C=CC[C@@H]1C[C@@H](COc2ccc(-c3ccc(C#N)cc3)cc2)N(Cc2ccc(OC)cc2)C1=O | 120 to 122
10 | CNCCc1[nH]c2ccccc2c1-c1ccccc1 | 148 to 151
11 | CNC(=O)NS(=O)(=O)c1cccc2c1OS(=O)(=O)C(C)C2 (stereo unspecified) | 235 to 238
12 | COc1ccc(N2CCN(c3c(C)c(C)c4c(c3C)CC(C)(C)O4)CC2)cn1 | 178 to 180
13 | O=C(Nc1ccc(C(CC2CCCC2)C(=O)Nc2nccs2)cc1)c1ccncc1 (stereo unspecified) | 225 to 230
14 | Cn1cccc1C1=C(Cl)C(=O)c2cccnc2C1=O | 168 to 169
15 | O=C(Oc1ccc2c(OC(=O)c3ccc(O)c(Cl)c3)c3ccccc3cc2c1OC(=O)c1ccc(O)c(Cl)c1)c1ccc(O)c(Cl)c1 | 238
16 | CCCCC(=O)Oc1ccc(-c2ccc(C#N)cc2)cc1 | 36.5 to 36.9
17 | NCC1COc2cc(Cl)cc(-c3ccc(C(F)(F)F)cc3C(F)(F)F)c2N1 (stereo unspecified) | 98
18 | CSc1ccc(-n2cnc3ccc(-c4nnc(CC(F)(F)F)o4)cc32)cc1 | 190 to 192
19 | O=C(O)c1cccc(-c2nc3cc(N4CCCC4=O)ccc3o2)c1 | 190 to 192
20 | NC(=O)c1nnn(Cc2ccccc2C(F)(F)F)c1N | 197 to 198
21 | O=C1c2ccccc2C(=O)N1CCCCOc1cccc2c1SCCC2 | 116
22 | Nc1ccc(Cn2ncc3ccccc32)cc1 | 110 to 111
23 | N#Cc1ccc(N2CC(=O)NC2=O)c(-c2cccs2)c1 | 189
24 | Cn1cc(C2=C(c3cn(C)c4cc([N+](=O)[O-])ccc34)C(=O)N(COP(=O)(OCc3ccccc3)OCc3ccccc3)C2=O)c2ccccc21 | 105 to 109

Row | Structure (SMILES) | melting point [°C]
25 | Cc1cc(C(=S)CBr)ccc1O | 118 to 120
26 | COc1ccc(OC)c(C(O)CNC(=O)CN)c1 (stereo unspecified) | 106 to 107
27 | COc1ccc(COCn2cc(Cl)cnc2=O)cc1 | 118
28 | COc1ccc(C(=O)O)c(N)c1OC | 183 to 184
29 | COc1c(-c2ccccc2)c(C(=O)c2ccc(O)c(Br)c2)n2ccccc12 | 205
30 | COC(=O)c1ccccc1C=C1C(=O)Nc2ccc(S(=O)(=O)NC(C)C)cc21 | 271 to 273
31 | c1cc(CN2CCCCC2)cc(OCCCCCNc2nc3ccccc3s2)c1 | 140 to 145
32 | O=C1c2ccccc2C(Cc2ccnc(F)c2)(Cc2ccnc(F)c2)c2cc(O)ccc21 | 219 to 221
33 | CC(C)(C)NS(=O)(=O)c1ccccc1C=C1CCOC1=O | 173 to 176
34 | CS(=O)(=O)OC[C@@H]1Cc2cc3ccccc3n2C[C@H]1COS(C)(=O)=O (relative stereo) | 139 to 141
35 | NNc1ncc(-c2cccc(C(F)(F)F)c2)nn1 | 229 to 232
36 | C=CCOC(=O)c1cccc(C)c1OS(=O)(=O)NC(=O)Nc1nc(C)cc(OC)n1 | 127 to 128
37 | CC(C)(C)c1ccc(CC[C@@H](N)[C@H](O)c2ccc(F)cc2)cc1 (racemic) | 139 to 140
38 | CC(=O)Nc1sc2c(c1C(=O)c1ccccc1)CCCC2 | 116 to 119
39 | Cc1c(NC(=O)c2ccc(-c3ccc(F)cc3)cc2)ccc2cc(CN(C(C)C)C(C)C)cnc12 | 179 to 180
40 | CC(C)c1cccc(C(C)C)c1NC(=O)[C@H](C)NC(c1ccccc1)c1ccccc1 | 134 to 138
41 | O=C1OC(O)c2c(F)cccc21 (stereo unspecified) | 97 to 100
42 | CCOC(=O)c1cc(OCC)c(OCC)cc1N | 69 to 71
43 | CCCCNS(=O)(=O)c1ccc(N2CCC(NC[C@H](O)COc3cccc4[nH]c(=O)[nH]c34)CC2)cc1 | 69 to 75
44 | COc1cc2c(cc1OC)-c1cc(OC)c(OC)cc1C1CN3C(=O)CCC3C=C21 (stereo unspecified) | 252 to 254
45 | CCCCNC(=O)NS(=O)(=O)c1ccc(N2CCC(NC[C@H](O)c3ccc(O)c(NS(C)(=O)=O)c3)CC2)cc1 | 100 to 102
46 | CCCCc1nc(CCc2ccccc2)nn1Cc1ccc(-c2ccccc2-n2cnnn2)cc1 | 156 to 157
47 | Cc1ccc(CSc2nc3cc4c(cc3[nH]2)C(C)(C)C(=O)C4(C)C)nc1 | 220 to 222
48 | CN1CCN(C(=O)CCOC2c3ccccc3C(=O)N2c2ccc3ccc(Cl)nc3n2)CC1 (stereo unspecified) | 150

Row | Structure (SMILES) | melting point [°C]
49 | CC(=O)NCCN1CCN(c2cccccc2=O)CC1 | 117 to 118
50 | CCNC(=O)c1nc2cc(NC(=O)c3c(C(=O)N4CCC4)cnn3C)ccn2n1 | 217 to 229
51 | COc1ccc(OCCCCCCI)cc1 | 64 to 66
52 | CCCNC(=O)C(C)c1nc(CC)no1 (stereo unspecified) | 52 to 53
53 | CC(C)Cn1c(=O)n(C)c(=O)c2c(-c3cccc(-c4nnn[nH]4)c3)n(Cc3cccc4ccccc34)nc21 | 251 to 254
54 | CCCCc1nc(C(=O)C(C)(C)C)c(C#N)[nH]1 | 135 to 137
55 | Cc1cc(-c2ccc3ncc(N)nc3c2)cc(C)c1O | 256
56 | COc1cc(O)cc2oc(=O)cc(C)c12 | 261 to 263
57 | CCCc1nn(-c2ccc(C(F)(F)F)cn2)cc1CCCOc1ccccc1CC(=O)O | 100 to 101
58 | CCN1CCN(C2=Nc3cc(Cl)ccc3Oc3ccccc32)CC1 | 100 to 101
59 | CC(C)(C)OC(=O)C1CCN(C(=O)C2CN(c3ccc(C(=N)N)cc3)C(=O)O2)CC1 (stereo unspecified) | 160
60 | CCOP(=O)(OCC)C(Sc1cc(Br)ccc1O)=P(OCC)(OCC)OCC | 118 to 120
61 | O=C(O)CCOc1cccc(CN2CCCCC2)c1 | 178 to 180
62 | C(=Cc1ccc(-c2nc(-c3ccc(C=Cc4ccccc4)cc3)n(-c3ccccc3)n2)cc1)c1ccccc1 | 218 to 220
63 | COc1cc(Cn2cccc3ncnc2-3)ccc1C(=O)N(C(C)C)C1CCCCC1 | 98 to 100
64 | CCOC(=O)Cc1c(C)n(-c2ncnc3ccccc23)c2ccc(OC)cc12 | 121 to 123
65 | CCOC(=O)C(OC(=O)c1ccc(O)cc1)C(F)(F)F (stereo unspecified) | 83.8
66 | CCN(CC)CCCCC1CCCCN1CCNC(=O)N1c2ccccc2C(=O)Nc2cccnc21 (stereo unspecified) | 155 to 157
67 | CC(=O)C1=C(O)C(=C(C)Nc2ccccc2N)C(=O)OC1=O | 179 to 181
68 | CCCS(=O)(=O)c1cc([C@H]2CC[C@H](c3cc(OC)c(OC)c(OC)c3)O2)cc(OC)c1OCCBr (relative stereo) | 135 to 136
69 | C[C@H](C(O)C(c1ccc(F)cc1F)n1cncn1)S(=O)(=O)[C@@H]1CNCCN1c1ccccc1 (stereo partly specified) | 135 to 137
70 | Cc1cc(NS(=O)(=O)c2ccc(F)cc2)cc(C)c1S(=O)(=O)C[N+](=O)[O-] | 152 to 154
71 | CCOC(=O)c1cc2cc(N)ccc2[nH]1 | 124 to 125
72 | O=C1CC2(CCCC2)CC(=O)N1CCCCN1CCN(c2noc3cc(Cl)ccc23)CC1 | 128

Row | Structure (SMILES) | melting point [°C]
73 | CCN(CC)Cc1cc(Nc2ccnc3cc(Cl)ccc23)c2ccccc2c1O | 158 to 160
74 | Cc1[nH]c(-c2ccccc2)nc1-c1cc(C(C)(C)C)c(O)c(C(C)(C)C)c1 | 298 to 300
75 | O=C(O)C[C@@]1(C[N+](=O)[O-])C[C@H]2CCC[C@H]21 | 64 to 66
76 | O=C(Nc1ccc(C(=O)N2CCCCc3cc(Cl)ccc32)cn1)c1ccccc1OCCCCO | 157 to 158
77 | OCc1ccc(-c2ccc(OC(F)(F)F)cc2)nc1 | 57 to 58
78 | CCc1cc(=O)c2c([nH]1)CCCN2 | 206 to 209
79 | COc1ccc2c(=O)c(N)coc2c1 | 143 to 146
80 | COc1ccccc1CN1CCc2cc(OCc3ccccc3)c(OC)cc2C1 | 85 to 86
81 | O=S(=O)(CC(F)(F)F)Oc1cccc(OS(=O)(=O)CC(F)(F)F)c1OS(=O)(=O)CC(F)(F)F | 73.5 to 75
82 | CNc1cc(C)c(O)c(C)c1C | 120 to 122
83 | CCn1c(=O)c(=O)[nH]c2cc(-n3cccc3)c([N+](=O)[O-])cc21 | 248 to 250
84 | Nc1cc(Oc2ccc(Oc3cc(N)cc(C(F)(F)F)c3)c(C(F)(F)F)c2)cc(C(F)(F)F)c1 | 82 to 84
85 | COc1cn(-c2ccc(OCc3ccccc3)cc2F)nc(C(C)=O)c1=O | 101 to 103
86 | O=C(c1ccccc1)c1ccc([N+](=O)[O-])c(CO)c1 | 71.3
87 | CC(C)c1c(C(=O)N[C@H](C)[C@](O)(Cn2cncn2)c2ccc(F)cc2F)cnn1-c1ccc(Cl)cc1 | 85 to 92
88 | CN(NC(=O)c1ccccc1C(=O)O)c1nc(-c2ccccc2)cs1 | 122 to 124
89 | O=C1NCN(c2ccccc2)C12CCN(CCCn1c(=O)[nH]c3cc(Cl)c(Cl)cc31)CC2 | 275
90 | CCCn1nc(C(C)C)c(C(=O)OCc2ccccc2C(=O)c2ccccc2)c1Cc1ccc(-c2ccccc2S(=O)(=O)NC(C)(C)C)c(F)c1 | 49 to 51
91 | CC(=O)OCc1nc2cc(Cl)c(C)cc2c(=O)[nH]1 | 220 to 225
92 | O=S(=O)(c1ccc(F)cc1)C(F)(F)C(F)(F)C(F)(F)C(F)(F)C(F)(F)C(F)(F)C(F)(F)C(F)(F)S(=O)(=O)c1ccc(F)cc1 | 109 to 110
93 | O=C1c2cccnc2N(c2ccccc2)C(=O)C12CCCC2 | 178 to 179
94 | O=C(Nc1ccc(-n2nc(C(F)(F)F)cc2C(F)(F)F)cc1)C1=CCCCC1 | 146 to 148
95 | NC1=NC(c2ccc(OC(F)(F)F)cc2)(c2cccc(-c3cncc(F)c3)c2)C2=NCCON12 (stereo unspecified) | 120 to 135
96 | CCCCOC(=O)COCCCNC(=O)[C@H](C)NC(=O)OCc1ccccc1 | 54 to 55
